Earlier results, collected in patent publication US6409990B1, “Macromolecular carrier for drug and diagnostic agent delivery” (The Regents of the University of California, priority 1999, dated 2002).

Conditions: similar time postinjection; Grist TM et al.

In the case of `O=C([O-])CN(CCN(CC(=O)[O-])C[C@H](COP(=O)([O-])OC1CCC(c2ccccc2)(c2ccccc2)CC1)N(CC(=O)[O-])CC(=O)[O-])CC(=O)[O-].[Gd+3].[H+].[H+].[H+]` [MS-325], the “typical CNR in the human aorta” value is listed as 42.
